Source: patent US20250059184A1 (priority 2021, published 2025)

Key:
[1] = tested on: 5HT2A sensor; conditions: cited from earlier work
[2] = tested on: mice; conditions: mouse, in vivo; cited from earlier work
[3] = tested on: 5HT2A sensor; conditions: cited from earlier work; remark: listed apart in the source
[4] = target: T1, 5-HT2A (Homo sapiens, UniProt P28223); assay: Serotonin 5-HT2A in vitro cellular IPOne antagonism assay (HTRF); format: cell-based; parameters: host or cells: CHO-K1; conditions: CHO-K1 cells, reference agonist α-Me-5HT; read-out: 5-HT2A IPOne Antagonist Activity
Procedure: (§1) Serotonin 5-HT2A In Vitro Cellular IPOne Antagonism Assay. The 5-HT2A IPOne HTRF assay was performed at Epics Therapeutics S.A. (Belgium, FAST-O0505) in antagonism mode using conventional methods. Briefly, CHO-K1 cells expressing human recombinant 5-HT2A receptor grown to mid-log phase in culture media without antibiotics were detached with PBS-EDTA, centrifuged, and resuspended in medium without antibiotics buffer. 20,000 cells were distributed in a 96 well plate and incubated overnight at 37° C. with 5% Co2.
For antagonist testing, a reference agonist α-Me-5HT was added and fluorescence signal monitored for several minutes, followed by addition of 20 μl of assay buffer plus 20 μl of test compound or reference antagonist ketanserin, in each well. The plate was incubated for 60 min. at 37° C. with 5% CO2.
(§2) After addition of the lysis buffer containing IP1-d2 and anti-IP1 cryptate detection reagents, plates were incubated 1-hour at room temperature, and fluorescence ratios were measured according to the manufacturer specification, with the HTRF kit.

[5] = target: T1, 5-HT2A; assay: Serotonin 5-HT2A in vitro cellular IPOne agonism assay (HTRF); format: cell-based; parameters: host or cells: CHO-K1; conditions: CHO-K1 cells, agonist mode
Procedure: as §1, with “Agonism” for “Antagonism”, “FAST-0505I)” for “FAST-O0505) in antagonism mode”
For agonist testing, the medium was removed and 20 μl of assay buffer plus 20 μl of test compound or reference agonist were added in each well. The plate was incubated for 60 min. at 37° C. with 5% CO2.
as §2

[6] = target: T1, 5-HT2A; assay: Serotonin 5-HT2A in vitro radioligand binding competition assay ([3H]-DOI); parameters: purchased Epics Therapeutics S.A. (Belgium) FAST-0505B; conditions: [3H]-DOI radiotracer, membrane extracts
Procedure: Serotonin 5-HT2A In Vitro Radioligand Binding Competition Assay. The 5-HT2A radioligand binding competition assay was performed at Epics Therapeutics S.A. (Belgium, FAST-0505B) using conventional methods. Briefly, competition binding was performed in duplicate in the wells of a 96 well plate (Master Block, Greiner, 786201) containing binding buffer (optimized for each receptor), membrane extracts (amount of protein/well optimized for each receptor), radiotracer [^3H]-DOI (final concentration optimized for each receptor) and test compound. Nonspecific binding was determined by co-incubation with 200-fold excess of cold competitor. The samples were incubated in a final volume of 0.1 ml at a temperature and for a duration optimized for each receptor and then filtered over filter plates. Filters were washed six times with 0.5 ml of ice-cold washing buffer (optimized for each receptor) and 50 μl of Microscint 20 (Packard) were added in each well. The plates were incubated 15 min on an orbital shaker and then counted with a TopCount™ for 1 min/well.

T1 sequence (P28223 whole entry): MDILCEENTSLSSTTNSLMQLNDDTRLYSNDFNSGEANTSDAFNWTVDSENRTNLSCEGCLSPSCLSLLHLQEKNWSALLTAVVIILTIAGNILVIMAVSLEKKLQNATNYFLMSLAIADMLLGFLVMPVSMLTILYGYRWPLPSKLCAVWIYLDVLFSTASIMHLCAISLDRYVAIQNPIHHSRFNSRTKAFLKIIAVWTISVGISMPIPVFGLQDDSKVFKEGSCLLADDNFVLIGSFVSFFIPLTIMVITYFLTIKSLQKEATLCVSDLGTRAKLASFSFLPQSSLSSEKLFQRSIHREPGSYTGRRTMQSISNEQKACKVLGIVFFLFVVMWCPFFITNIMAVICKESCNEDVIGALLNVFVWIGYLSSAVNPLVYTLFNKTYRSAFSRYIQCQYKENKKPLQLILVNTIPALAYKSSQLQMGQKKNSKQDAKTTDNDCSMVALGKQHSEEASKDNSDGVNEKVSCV

Compound | activation of the 5HT2A sensor assay in agonist mode [1] | head-twitch response (HTR) [2] | competition with 5-HT in the 5HT2A sensor assay in antagonist mode [3] | IC50 [4] | EC50 [5] | IC50 [6]
L-MDMA | do not activate the 5HT2A sensor assay in agonist mode |  |  |  |  | 
5-MeO-DMT [Compound 5-MeO-DMT] | activate the 5HT2A sensor assay in agonist mode | robust, dose-dependent head-twitch response |  |  |  | 
CN(C)CCc1c[nH]c2ccccc12 [DMT, N,N-dimethyltryptamine] | activate the 5HT2A sensor assay in agonist mode |  |  |  |  | 
6-MeO-DMT [Compound 6-MeO-DMT] | do not activate the 5HT2A sensor assay in agonist mode | does not produce a HTR | compete off 5-HT |  |  | 
CN(C)C(C)(C)Cc1ncc2ccccn12 [Compound 19, 1-(imidazo [1,5-a]pyridin-3-yl)-N,N,2-trimethylpropan-2-amine] |  |  |  | 1000 to 10000 nM | > 10000 nM | 1000 to 10000 nM
O=C(c1ccc(F)cc1)C1CCN(CCn2c(=O)[nH]c3ccccc3c2=O)CC1 [Ketanserin] | do not activate the 5HT2A sensor assay in agonist mode |  | can compete with 5HT binding to 5HT2A |  |  | 
CC(Cc1ncc2cc(F)ccn12)N(C)C (centres unmarked) [Compound 17, 1-(7-fluoroimidazo[1,5-a]pyridin-3-yl)-N,N-dimethylpropan-2-amine] |  |  |  | 101 to 1000 nM | > 10000 nM | 101 to 1000 nM
BOL148 | do not activate the 5HT2A sensor assay in agonist mode |  | can compete with 5HT binding to 5HT2A |  |  | 
CC(Cc1ncc2ccccn12)N(C)C (centres unmarked) [Compound 15, 1-(imidazo [1,5-a]pyridin-3-yl)-N,N-dimethylpropan-2-amine] |  |  |  | 1000 to 10000 nM | > 10000 nM | 1000 to 10000 nM
CC(C)NC(C)Cc1ncc2ccccn12 (centres unmarked) [Compound 26, 1-(imidazo [1,5-a]pyridin-3-yl)-N-isopropylpropan-2-amine] |  |  |  | 101 to 1000 nM | > 10000 nM | 101 to 1000 nM
C[C@H](Cc1ncc2ccccn12)N(C)C [Compound 30, (R)-1-(imidazo[1,5-a]pyridin-3-yl)-N,N-dimethylpropan-2-amine] |  |  |  | 1000 to 10000 nM | > 10000 nM | 101 to 1000 nM
CC(C)(N)Cc1ncc2ccccn12 [Compound 6, 1-(imidazo [1,5-a]pyridin-3-yl)-2-methylpropan-2-amine] |  |  |  | 101 to 1000 nM | > 10000 nM | 1000 to 10000 nM
CC(Cc1ncc2ccccn12)N1CCCC1 (centres unmarked) [Compound 27, 3-(2-(pyrrolidin-1-yl)propyl)imidazo[1,5-a]pyridine] |  |  |  | 1000 to 10000 nM | > 10000 nM | 1000 to 10000 nM
R-MDMA | do not activate the 5HT2A sensor assay in agonist mode |  |  |  |  | 
CN(C)CCc1ncc2ccccn12 [Compound 14, 2-(Imidazo[1,5-a]pyridin-3-yl)-N,N-dimethylethan-1-amine] |  |  |  | 1000 to 10000 nM | > 10000 nM | 1000 to 10000 nM
Cc1cccn2c(CC(C)N)ncc12 (centres unmarked) [Compound 8, 1-(8-methylimidazo[1,5-a]pyridin-3-yl)propan-2-amine] |  |  |  | > 10000 nM | 1000 to 10000 nM | 1000 to 10000 nM
c1ccn2c(C3CCNC3)ncc2c1 (centres unmarked) [Compound 12, 3-(Pyrrolidin-3-yl)imidazo[1,5-a]pyridine] |  |  |  | 1000 to 10000 nM | > 10000 nM | 1000 to 10000 nM
6-F-DET [Compound 6-F-DET] | do not activate the 5HT2A sensor assay in agonist mode |  | can compete with 5HT binding to 5HT2A |  |  | 
